# Legend:
# [1] = tested on: DNA damage-induced cell cycle arrest; experiment: Cell cycle analysis: abrogation of DNA damage-induced cell cycle arrest; assay type: cell-based; settings: for G2 arrest caused by the compound itself: compound alone / at concentrations capable of abrogating arrest
# Experimental: Experiments of cell cycle analysis were conducted in accordance with procedures described by […] et al. Cell Growth and Differ. 1994 5:983-993; Bunch, R. T. and Eastman, A. […] T. and Eastman, A. Cell Growth and Differ. 1997 8:779-788.
# [2] = tested on: DNA damage-induced cell cycle arrest; experiment: Cell cycle arrest abrogation in the presence of human plasma / plasma proteins; assay type: cell-based; settings: human plasma / human plasma proteins added
# Experimental: However, in K252a the hexose. moiety is replaced with a pentose moiety. […] It is believed that the pentose ring of this structure prevents binding of this compound to human plasma proteins.
# Experiments of cell cycle analysis were conducted in accordance with procedures described by Demarcq et al. Cell Growth and Differ. 1994 5:983-993; Bunch, R. T. and Eastman, A. Clinical Cancer Research 1996 2:791-7; and Bunch, R. T. and Eastman, A. Cell Growth and Differ. 1997 8:779-788.
# [3] = tested on: p53 defective human breast cancer cells lines, MDA-MD-231 and T47D; experiment: Selectivity of arrest abrogation for p53 defective cell lines; assay type: cell-based
# Experimental: The breast cancer cell lines were obtained from the American Type Culture Collection (Rockville, Md.). The cells were maintained in Dulbecco's modified Eagle's Medium supplemented with 10% fetal bovine serum, penicillin (100 units/ml), streptomycin (100 μg/ml) and fungizone (0.25 μg/ml).
# [4] = tested on: human prostate carcinoma cells; settings: cited from earlier work
# [5] = tested on: human cells; settings: cited from earlier work
# [6] = tested on: Chinese hamster ovary cells; settings: Chinese hamster ovary cells incubated with cisplatin; cited from earlier work
# [7] = tested on: G2 checkpoint activated by DNA damage; settings: literature; UCN-01: noncytotoxic doses, cisplatin; cited from earlier work
compound,measurement,setting,value
COC(=O)[C@@]1(O)CC2O[C@]1(C)n1c3ccccc3c3c4c(c5c6ccccc6n2c5c31)C(=O)NC4=O [ICP1],G2 arrest caused by the compound itself,[1],does not cause G2 arrest
same,abrogation of cell cycle arrest,[1]; non-toxic concentrations,abrogates cell cycle arrest at non-toxic concentrations
same,activity (abrogation of cell cycle arrest) in the presence of human plasma,[2],maintain its ability to abrogate cell cycle arrest
same,selectivity of abrogation of cell arrest for p53 defective cell lines,[3],selective for p53 defective cell lines
COC(=O)[C@@]1(O)CC2O[C@]1(C)n1c3ccccc3c3c4c(c5c6ccccc6n2c5c31)C(=O)NC4 [K252a],inhibition of growth of human prostate carcinoma cells,[4],inhibit the growth
same,abrogation of cell cycle arrest in the G2 phase,[1]; G2 phase,does not abrogate cell cycle arrest in the G2 phase
same,abrogation of cell cycle arrest in the S phase,[1]; S phase,only abrogates cell cycle arrest in the S phase
same,G2 arrest caused by the compound itself,[1],causes G2 arrest
same,activity (abrogation of cell cycle arrest) in the presence of human plasma,[2],not inhibited
"CN[C@@H]1C[C@H]2O[C@@](C)([C@@H]1OC)n1c3ccccc3c3c4c(c5c6ccccc6n2c5c31)C(=O)N[C@H]4O [UCN-01, 7-hydroxystaurosporine]",abrogation of S phase arrest,[5],Abrogation of S phase arrest has also been observed
same,abrogation of S-phase arrest,[6],abrogates this S-phase arrest
same,abrogation of G2 checkpoint / G2 arrest after DNA damage,[7],abrogate the G2 arrest
COC[C@@H]([C@H](O)[C@H](O)C(=O)NCC[C@H](C)c1nc(/C=C/C[C@@H]2O[C@]3(C[C@@H](O)[C@@H]2C)O[C@H]([C@H](C[C@H](O)[C@H](C)[C@H](O)[C@H](C)/C=C(C)/C(C)=C/C=C/C(C)=C\C#N)OC)[C@H](OP(=O)(O)O)C3(C)C)co1)N(C)C [calyculin A],abrogation of G2 checkpoint / G2 arrest after DNA damage,[7],abrogate the G2 checkpoint
C[C@@](O)(/C=C/[C@H]1CC=CC(=O)O1)[C@@H](C[C@@H](O)\C=C/C=C\C=C\CO)OP(=O)(O)O [fostriecin],abrogation of G2 checkpoint / G2 arrest after DNA damage,[7],abrogate the G2 checkpoint
C=C1[C@@H](O)[C@@H]2O[C@]3(CC[C@H](/C=C/[C@@H](C)[C@@H]4CC(C)=C[C@@]5(O[C@H](C[C@@](C)(O)C(=O)O)CC[C@H]5O)O4)O3)CC[C@H]2O[C@@H]1[C@@H](O)C[C@H](C)[C@H]1O[C@@]2(CCCCO2)CC[C@H]1C [okadaic acid],abrogation of G2 checkpoint / G2 arrest after DNA damage,[7],abrogate the G2 checkpoint
CC(=O)CCCCn1c(=O)c2c(ncn2C)n(C)c1=O [pentoxifylline],abrogation of G2 checkpoint / G2 arrest after DNA damage,[7],abrogate the G2 checkpoint
CN[C@@H]1C[C@H]2O[C@@](C)([C@@H]1OC)n1c3ccccc3c3c4c(c5c6ccccc6n2c5c31)C(=O)NC4 [staurosporine],abrogation of G2 checkpoint / G2 arrest after DNA damage,[7],abrogate the G2 checkpoint
